According to patent US20110054216A1, “NOVEL PROCESS FOR MAKING (2R)-(3-AMINO-2-FLUOROPROPYL)PHOSPHINIC ACID FORM A” (priority 2007, published 2011):

Test: isoelectric point of the zwitterion
Format: physicochemical
Details: pH at which it may be crystallised
Procedure: (2R)-(3-amino-2-fluoropropyl)phosphinic acid is a zwitterion, that may be crystallised at the isoelectric point, in this case approximately at a pH of 5.3. As the reaction is performed during acidic conditions, the protonated species of (2R)-(3-amino-2-fluoropropyl)phosphinic acid is formed. After completed reaction, the pH is adjusted to 5-6 by addition of a base in order to isolate (2R)-(3-amino-2-fluoropropyl)phosphinic acid crude as the zwitterion. The solution of (2R)-(3-amino-2-fluoropropyl)phosphinic acid works as a buffer solution and the amount of base added to reach the set pH-interval (5-6) is can be varied in the range of from 1.8-2.8 equivalents.

NC[C@@H](F)C[PH](=O)O [(2R)-(3-amino-2-fluoropropyl)phosphinic acid]
isoelectric point (pH): ~5.3
